In patent US20140030209A1, “TOPICAL LIQUID AGENT FOR THE TREATMENT OF DERMATOPHYTOSIS” (MEIJI SEIKA PHARMA CO., LTD., priority 2012, published 2014):

Columns and labels:
[1] = test system: Trichophyton rubrum (T. rubrum) ATCC10218; assay: Antifungal activity against dermatophytes (MIC, WST8); type: cell-based; conditions: 80% growth inhibiting concentration; RPMI1640/MOPS, 28° C., 4 days, 1% DMSO
Description: (§1) Measurement of the antifungal activity against dermatophytes of the compound of the formula (I) contained in the topical liquid agent of the present invention was carried out by the following method. The compound to be evaluated was used by dissolving in dimethyl sulfoxide (DMSO). As a medium for the test, RPMI1640 medium containing 0.165M of 3-morpholinopropanesulfonic acid (MOPS) was used. As fungi to be tested, Trichophyton mentagrophytes (T. mentagrophytes) ATCC18748 or Trichophyton rubrum (T. rubrum) ATCC10218 was used. The testing fungal strain was apportioned to […] with a concentration of 1×10^4 conidia/ml, mixed with a compound to be evaluated on a 96-well half area plate so that the DMSO concentration became 1%, and cultured at a cultivation temperature of 28° C. for 3 days (T. mentagrophytes) or 4 days (T. rubrum). Thereafter, 5 μl of Cell Counting Kit 8 (WST8) was added thereto, and absorbances at 450 nm and 595 nm were measured to use these as background values. Thereafter, these were cultivated at 28° C. for 5 hours (T. mentagrophytes) or overnight (T. rubrum) to cause a color, and absorbances at 450 nm and 595 nm were measured again. A growth inhibiting rate was calculated from the difference to the background values, and a 80% growth inhibiting concentration was made an MIC value […].

[2] = test system: Trichophyton mentagrophytes (T. mentagrophytes) ATCC18748; assay: as above; type: cell-based; conditions: 80% growth inhibiting concentration; RPMI1640/MOPS, 28° C., 3 days, 1% DMSO
Description: as §1

| MIC (T. rubrum) [1] | MIC (T. mentagrophytes) [2] | SMILES |
| --- | --- | --- |
| B (4 to 16 μg/ml) |  | Cc1cc(C)n(-c2ccc(C(=O)N(C)C)cc2O)n1 [compound 38] |
| B (4 to 16 μg/ml) |  | CNc1ccc(-n2nc(C)cc2C)c(O)c1 [compound 48] |
| D (>32 to 64 μg/ml) |  | Cc1cc(C)n(-c2cc(Cl)ccc2O)n1 [compound 11] |
| C (16 to 32 μg/ml) |  | Cc1cc(C)n(-c2ccc(C(N)=O)cc2O)n1 [compound 39] |
| A (≦2 μg/ml) | A (≦1 μg/ml) | Cc1cc(C)n(-c2ccc(Br)cc2O)n1 [compound 54] |
| A (≦2 μg/ml) | A (≦1 μg/ml) | Cc1cc(C)n(-c2ccc(Cl)cc2O)n1 [compound 26] |
| A (≦2 μg/ml) | A (≦1 μg/ml) | CCc1ccc(-n2nc(C)cc2C)c(O)c1 [compound 52] |
| B (4 to 16 μg/ml) |  | Cc1nn(-c2ccc(N)cc2O)c(C)c1C [compound 34] |
| D (>32 to 64 μg/ml) |  | Cc1ccc(O)c(-n2nc(C)cc2C)c1 [compound 49] |
| B (4 to 16 μg/ml) |  | Cc1cc(C)n(-c2ccc(N)cc2O)n1 [compound 31] |
| A (≦2 μg/ml) | A (≦1 μg/ml) | COc1ccc(-n2nc(C)cc2C)c(O)c1 [compound 45] |
| A (≦2 μg/ml) |  | Cc1cc(C)n(-c2ccc(O)cc2O)n1 [compound 33] |
| B (4 to 16 μg/ml) |  | Cc1cc(C)n(-c2ccc(C(=O)O)cc2O)n1 [compound 37] |
| B (4 to 16 μg/ml) |  | CC(=O)Oc1ccc(-n2nc(C)cc2C)c(O)c1 [compound 57] |
| B (4 to 16 μg/ml) |  | Cc1cc(C)n(-c2ccc(C(F)(F)F)cc2O)n1 [compound 50] |
| C (16 to 32 μg/ml) |  | Cc1cc(C)n(-c2cccc(O)c2O)n1 [compound 15] |
| B (4 to 16 μg/ml) |  | Cc1cc(C)n(-c2ccc(CO)cc2O)n1 [compound 47] |
| C (16 to 32 μg/ml) |  | Cc1cc(C)n(-c2ccc([N+](=O)[O-])cc2O)n1 [compound 28] |
| B (4 to 16 μg/ml) |  | Cc1cc(C)n(-c2ccccc2O)n1 [compound 1] |
| B (4 to 16 μg/ml) |  | Cc1cc(C)n(-c2ccc(F)cc2O)n1 [compound 25] |
| D (>32 to 64 μg/ml) |  | Cc1cc(C)n(-c2c(N)cccc2O)n1 [compound 36] |
| C (16 to 32 μg/ml) |  | COC(=O)c1ccc(-n2nc(C)cc2C)c(O)c1 [compound 35] |
| A (≦2 μg/ml) | A (≦1 μg/ml) | Cc1ccc(-n2nc(C)cc2C)c(O)c1 [compound 44] |

The next lines start with the compound.

| SMILES | MIC (T. rubrum) [1] | MIC (T. mentagrophytes) [2] |
| --- | --- | --- |
| Cc1cc(C)n(-c2c(C)cccc2O)n1 [compound 46] | D (>32 to 64 μg/ml) |  |
| CC(=O)Oc1ccc(-n2nc(C)c(Cl)c2C)c(O)c1 [compound 58] | A (≦2 μg/ml) |  |
| Cc1nn(-c2cc(O)ccc2O)c(C)c1Cl [compound 19] | C (16 to 32 μg/ml) |  |
| Cc1cc(C)n(-c2c(O)cccc2O)n1 [compound 43] | D (>32 to 64 μg/ml) |  |
| Cc1nn(-c2ccc(O)cc2O)c(C)c1Cl [compound 63] | A (≦2 μg/ml) | A (≦1 μg/ml) |
| Cc1nn(-c2cc(F)ccc2O)c(C)c1C [compound 20] | D (>32 to 64 μg/ml) |  |
| Cc1nn(-c2ccc([N+](=O)[O-])cc2O)c(C)c1C [compound 32] | B (4 to 16 μg/ml) |  |
| CCOC(=O)c1c(C)nn(-c2ccccc2O)c1C [compound 22] | D (>32 to 64 μg/ml) |  |
| CCc1c(C)nn(-c2ccccc2O)c1C [compound 17] | A (≦2 μg/ml) | A (≦1 μg/ml) |
| Cc1nn(-c2ccccc2O)c(C)c1F [compound 53] | B (4 to 16 μg/ml) |  |
| Cc1nn(-c2ccc(Br)cc2O)c(C)c1C [compound 56] | A (≦2 μg/ml) | A (≦1 μg/ml) |
| CC(=O)Oc1ccc(-n2nc(C)c(C)c2C)c(O)c1 [compound 59] | B (4 to 16 μg/ml) |  |
| Cc1cc(C)n(-c2cccc(C)c2O)n1 [compound 51] | D (>32 to 64 μg/ml) |  |
| COC(=O)CCc1c(C)nn(-c2ccccc2O)c1C [compound 23] | D (>32 to 64 μg/ml) |  |
| Cc1cc(C(F)(F)F)nn1-c1ccccc1O [compound 5] | D (>32 to 64 μg/ml) |  |
| Cc1nn(-c2ccc(Br)cc2O)c(C)c1Cl [compound 55] | A (≦2 μg/ml) | A (≦1 μg/ml) |
| Cc1nn(-c2ccc(F)cc2O)c(C)c1Cl [compound 21] | B (4 to 16 μg/ml) | A (≦1 μg/ml) |
| Cc1nn(-c2ccc(C(N)=O)cc2O)c(C)c1C [compound 41] | D (>32 to 64 μg/ml) |  |
| Cc1nn(-c2ccccc2O)c(C)c1C [compound 9] | A (≦2 μg/ml) | A (≦1 μg/ml) |
| CCCCc1c(C)nn(-c2ccccc2O)c1C [compound 24] | C (16 to 32 μg/ml) | A (≦1 μg/ml) |
| Cc1nn(-c2ccc(Cl)cc2O)c(C)c1C [compound 30] | A (≦2 μg/ml) | A (≦1 μg/ml) |
| Cc1nn(-c2ccc(C(N)=O)cc2O)c(C)c1Cl [compound 42] | D (>32 to 64 μg/ml) |  |
| CCc1cc(CC)n(-c2ccccc2O)n1 [compound 14] | B (4 to 16 μg/ml) |  |
| Cc1nn(-c2ccc(F)cc2O)c(C)c1C [compound 18] | B (4 to 16 μg/ml) |  |
| Cc1nn(-c2ccccc2O)c(C)c1Cl [compound 13] | B (4 to 16 μg/ml) | A (≦1 μg/ml) |
| Cc1nn(-c2ccc(C(=O)O)cc2O)c(C)c1C [compound 40] | D (>32 to 64 μg/ml) |  |
